Experimental data published in patent US10156566B2, “Detoxification of microbial virulence factors in oral cavity” (priority 2015, dated 2018).
Values joined by “and” are separate entries in the source; they are usually repeats but may differ in a detail not shown here. Equal entries are not always repeated. Structures can show the parent of a compound that is named as a salt. Where two headings read alike, the source gives them in different places.

Experiments:
[1] = system: E. coli LPS; test: Displacement of LPS from binding to BODIPY TR cadaverine (Tables 3, 9, 12, 13); settings: E. coli LPS 15 μg/ml
[2] = system: Lipopolysaccharide
[3] = system: P. gingivalis LPS 1690; assay type: biochemical
Description: (§1) The Limulus Amebocyte Lysate Assay (LAL) is an assay to determine the total amount of lipopolysaccharide (LPS) in the sample tested (Pierce LAL Chromogenic Endotoxin Quantitation Kit, ThermoFischer Scientific, Waltham, Mass.). The assay was performed following manufacturer's instruction. Ninety-six-well microplates were first equilibrated in a heating block for 10 min at 37° C. Fifty μl each of standard or sample was dispensed into the microplate wells and incubated with the plate covered for 5 min at 37° C. Then 50 μl LAL was added to each well.
(§2) Plates were shaken gently and incubated for 10 min at 37° C. 100 μl of chromogenic substrate was added and incubated for 6 min at 37° C.
(§3) The Thermo Scientific Pierce LAL Chromogenic Endotoxin Quantitation Kit is a quantitative endpoint assay for the detection of LPS, which catalyzes the activation of a proenzyme in the modified Limulus Amebocyte Lysate (LAL). The activated proenzyme then splits p-Nitroaniline (pNA) from the colorless substrate, Ac-Ile-Glu-Ala-Arg-pNA. […] Then 50 μl LAL was added to each well. Plates were shaken gently and incubated for 10 min at 37° C. 100 μl of chromogenic substrate was added and incubated for 6 min at 37° C.

[4] = system: E. coli LPS; assay type: biochemical
Description: as §1, §2, §3

[5] = biological target: T1, TLR4 (Homo sapiens, UniProt O00206+Q9Y6Y9); test: cell-based; assay type: cell-based; set-up: host or cells: HEK-Blue-hTLR4 (HEK 293T); settings: for Average fluorescence intensity (FI): Control 1027
Target sequence in this assay (O00206 24-839): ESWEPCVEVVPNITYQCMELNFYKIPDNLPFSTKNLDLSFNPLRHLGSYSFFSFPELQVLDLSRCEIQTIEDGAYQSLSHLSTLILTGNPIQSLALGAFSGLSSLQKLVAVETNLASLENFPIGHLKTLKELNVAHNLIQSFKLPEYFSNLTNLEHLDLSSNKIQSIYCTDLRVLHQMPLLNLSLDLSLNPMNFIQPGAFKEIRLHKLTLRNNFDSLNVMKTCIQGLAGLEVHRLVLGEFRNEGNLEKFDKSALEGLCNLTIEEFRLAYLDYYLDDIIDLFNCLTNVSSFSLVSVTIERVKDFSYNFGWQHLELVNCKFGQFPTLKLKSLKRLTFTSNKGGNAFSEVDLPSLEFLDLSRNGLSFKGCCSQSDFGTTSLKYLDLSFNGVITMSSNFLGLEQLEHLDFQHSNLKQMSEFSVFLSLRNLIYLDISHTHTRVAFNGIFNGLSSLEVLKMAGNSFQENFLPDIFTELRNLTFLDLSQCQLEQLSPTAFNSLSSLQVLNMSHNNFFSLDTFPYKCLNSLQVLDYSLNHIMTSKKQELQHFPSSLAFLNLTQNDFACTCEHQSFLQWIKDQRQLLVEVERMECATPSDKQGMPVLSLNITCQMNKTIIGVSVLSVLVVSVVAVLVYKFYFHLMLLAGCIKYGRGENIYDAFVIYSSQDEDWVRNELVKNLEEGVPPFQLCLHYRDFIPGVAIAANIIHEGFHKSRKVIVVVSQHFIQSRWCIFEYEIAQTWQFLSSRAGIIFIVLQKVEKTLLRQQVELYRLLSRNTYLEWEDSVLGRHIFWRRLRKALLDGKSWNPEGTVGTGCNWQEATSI
Target sequence in this assay (Q9Y6Y9 17-160): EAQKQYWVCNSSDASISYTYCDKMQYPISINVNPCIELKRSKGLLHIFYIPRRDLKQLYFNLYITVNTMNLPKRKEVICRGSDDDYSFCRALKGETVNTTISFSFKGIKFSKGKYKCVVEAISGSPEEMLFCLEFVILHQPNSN
Description: Stannous fluoride, Cetylpyridium chloride (CPC) and Triclosan were purchased from Sigma-Aldrich, St. Louis, Mo. […] The growth medium: DMEM, with 4.5 g/l glucose, supplemented 10% fetal bovine serum, 50 U/ml penicillin and streptomycin, 100 μg/ml Normocin, and 2 mM L-glutamine, purchased from Thermo Fisher, Waltham, Mass.

[6] = biological target: T2, TLR5 (Homo sapiens, UniProt O60602); test: TLR5-NFkB-SEAP reporter gene assay in HEK 293T cells; assay type: cell-based
T2 construct: host or cells: human HEK 293T cells
T2 sequence (O60602 21-858): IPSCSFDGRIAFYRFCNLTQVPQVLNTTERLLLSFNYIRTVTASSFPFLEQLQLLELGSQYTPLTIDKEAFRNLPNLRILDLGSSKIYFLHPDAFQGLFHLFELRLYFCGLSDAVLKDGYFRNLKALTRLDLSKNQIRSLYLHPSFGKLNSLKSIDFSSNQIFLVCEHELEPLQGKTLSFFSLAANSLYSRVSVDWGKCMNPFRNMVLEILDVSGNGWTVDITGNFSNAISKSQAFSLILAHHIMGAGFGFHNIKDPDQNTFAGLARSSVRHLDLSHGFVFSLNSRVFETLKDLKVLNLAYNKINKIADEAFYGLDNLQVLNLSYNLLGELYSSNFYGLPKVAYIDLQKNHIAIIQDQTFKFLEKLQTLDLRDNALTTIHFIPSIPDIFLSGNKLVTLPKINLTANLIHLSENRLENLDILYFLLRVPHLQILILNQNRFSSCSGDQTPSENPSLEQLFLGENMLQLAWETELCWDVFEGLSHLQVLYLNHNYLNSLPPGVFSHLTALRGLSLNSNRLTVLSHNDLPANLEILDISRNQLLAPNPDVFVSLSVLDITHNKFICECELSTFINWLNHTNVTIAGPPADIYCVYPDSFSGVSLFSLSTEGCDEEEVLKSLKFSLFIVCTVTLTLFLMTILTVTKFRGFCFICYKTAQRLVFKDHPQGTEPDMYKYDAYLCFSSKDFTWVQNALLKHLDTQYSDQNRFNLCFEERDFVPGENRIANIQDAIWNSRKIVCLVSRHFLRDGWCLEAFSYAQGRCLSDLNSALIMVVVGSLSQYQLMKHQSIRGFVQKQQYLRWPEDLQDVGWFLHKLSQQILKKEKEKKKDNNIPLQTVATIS
Description: The cell line was named as TLR5-NFkB-SEAP.
S. subtilis and S. aureus flagellin were added at a range of concentration from 0.97 ng to 1 μg/ml. […]

[7] = biological target: T1, TLR4; assay type: cell-based; set-up: host or cells: human HEK 293T cells; settings: for reduction of P. gingivalis LPS activation on the TLR4 reporter system: P. gingivalis LPS 500 ng/ml
Target sequence in this assay (O00206 24-839): as the sequence (O00206 24-839) above
Target sequence in this assay (Q9Y6Y9 17-160 limits assumed): as the sequence (Q9Y6Y9 17-160) above
Description: The cell line is named here as TLR4-SEAP. The reporter gene encodes a secreted enzyme, called embryonic alkaline phosphatase or SEAP. The SEAP reporter is placed under the control of an IL-12 p40 minimal promoter fused to five NF-κB and AP-1-binding sites. Furthermore, the TLR4-SEAP cell line also contains a CD14 co-receptor gene, which is needed to transfer LPS to TLR4 receptors. The recombinant TLR binds its ligand, or distinct pathogen-associated molecule, initiates a chain of responses, leading to recruitment of NFkB and API transcription factors to the reporter gene promoter, which induce expression of SEAP.
For treatment, wells of a 96-well plate were seeded with 10,000 cells/well in 100 μL of growth medium. […] On day 4, medium was changed to assay medium (90 μl), which is the DMEM medium without fetal calf serum. […] 10 μl of the bacteria, LPS and culture medium of bacterial growth were added to the TLR4-SEAP cells. Samples were taken 24 hours later, following addition of LPS, bacteria, and culture medium. Expression of the reporter gene (SEAP) was quantified with a commercially available kit (SEAP Reporter Gene Assay of Cayman Chemical Co., Ann Arbor, Mich.).
EC50 was calculated using GraphPad Prism software (GraphPad Software, La Jolla, Calif.).
Tests were conducted to understand whether stannous fluoride could reduce LPS's ability to trigger proinflammatory responses in host cells.

[8] = biological target: T3, TLR2 (Homo sapiens, UniProt O60603); assay type: cell-based; settings: stannous 1000 uM; P. gingivalis LPS
T3 construct: host or cells: human HEK 293T cells
T3 sequence (O60603 21-784): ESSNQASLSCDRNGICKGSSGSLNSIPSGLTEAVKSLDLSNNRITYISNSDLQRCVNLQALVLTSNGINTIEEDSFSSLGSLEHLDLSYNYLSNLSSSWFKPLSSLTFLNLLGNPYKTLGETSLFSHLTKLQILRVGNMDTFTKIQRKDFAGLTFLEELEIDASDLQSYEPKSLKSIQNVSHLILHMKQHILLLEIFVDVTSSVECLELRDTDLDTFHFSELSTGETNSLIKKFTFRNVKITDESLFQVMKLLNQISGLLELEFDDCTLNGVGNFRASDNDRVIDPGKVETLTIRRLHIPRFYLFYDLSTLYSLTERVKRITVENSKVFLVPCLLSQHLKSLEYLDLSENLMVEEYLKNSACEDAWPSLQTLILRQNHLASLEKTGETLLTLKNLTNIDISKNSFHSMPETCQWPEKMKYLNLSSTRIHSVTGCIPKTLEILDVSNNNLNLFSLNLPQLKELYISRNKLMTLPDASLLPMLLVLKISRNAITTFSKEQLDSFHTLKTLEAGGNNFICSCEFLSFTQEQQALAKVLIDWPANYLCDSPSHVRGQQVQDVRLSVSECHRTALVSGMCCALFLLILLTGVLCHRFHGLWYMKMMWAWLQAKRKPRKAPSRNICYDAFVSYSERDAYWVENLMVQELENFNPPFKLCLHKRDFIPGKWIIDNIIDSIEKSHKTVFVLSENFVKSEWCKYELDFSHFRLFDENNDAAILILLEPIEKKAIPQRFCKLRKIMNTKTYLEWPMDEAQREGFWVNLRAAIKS
Description: The cell line is named here as TLR2-SEAP. The reporter gene encodes a secreted enzyme, called embryonic alkaline phosphatase or SEAP. The SEAP reporter is placed under the control of the interferon-β minimal promoter fused to five NFkB and AP-1-binding sites. Furthermore, a CD14 co-receptor gene was transfected into the reporter gene cells expressing TLR2, as CD14 has been identified as a co-receptor for TLR2 ligands to enhance the TLR response. The CD14 co-receptor is needed to transfer LTA to TLR2 receptors. The recombinant TLR2 binds its ligand, or distinct pathogen-associated molecule, initiates a chain of responses, leading to recruitment of NFkB and API transcription factors to the reporter gene promoter, which induce expression of SEAP.
For treatment with LTA, wells of a 96-well plate were seeded with 10,000 cells/well in 100 μL of growth medium. […] On day 4, medium (100 μL) was changed to DMEM medium without fetal calf serum. […] Samples were taken 24 hours later, following addition of samples. Expression of the reporter gene (SEAP) was quantified with a commercially available kit (SEAP Reporter Gene Assay of Cayman Chemical Co., Ann Arbor, Mich.).

[9] = system: NFkB-SEAP reporter gene; test: THP1-Dual reporter cells, NFkB-SEAP; assay type: cell-based, human; settings: dose dependent
Description: (§4) THP1 NFkB-SEAP and IRF-Lucia™ Reporter Monocytes were purchased from Invivogen, San Diego, Calif. THP1-Dual cells were derived from the human THP-1 monocyte cell line by stable integration of two inducible reporter constructs. THP1-Dual cells feature the Lucia gene under the control of an ISG54 (interferon-stimulated gene) minimal promoter in conjunction with five interferon-stimulated response elements. THP1-Dual cells also express a SEAP reporter gene driven by an IFN-b minimal promoter fused to five copies of the NF-kB consensus transcriptional response element and three copies of the c-Rel binding site. As a result, THP1-Dual cells allow the simultaneous study of the NFkB pathway, by monitoring the activity of SEAP, and the interferon regulatory factor (IRF) pathway, by assessing the activity of Lucia (IRF-Luc). Both reporter proteins are readily measurable in the cell culture supernatant.
(§5) Cells were passed every 3 to 4 days by inoculating 300,000-500,000 cells/ml into a fresh T75 flask with 15 ml of fresh growth medium. […] After incubation for 18 hours at 37° C. and 5% CO2, secreted luciferase and SEAP were quantified with commercially available assay kits (QUANTI-Luc of Invivogen, San Diego, Calif. for luciferase; SEAP Reporter Gene Assay of Cayman Chemical Co., Ann Arbor, Mich. for SEAP).

[10] = system: E. coli LPS
Description: 0.7 ul of the sample solution was spotted on a MALDI plate, air-dried, and analyzed in negative ion mode using a MALDI-TOF/TOF 4800 plus system (AB-Sciex, Framingham, Mass., USA). Typical data acquisition uses mass scan range 500-3000 Da and a laser power of 4500. Data was collected in an automated fashion using random sampling over the sample spot with 250 shots per subspectrum and a total of 2500 shots per spectrum.

[11] = system: human primary monocytes; test: LPS-stimulated cytokine production in human primary monocytes; assay type: cell-based
Description: The primary human monocytes were purchased from Astarte Biologics (Bothell, Wash.). […] The medium was harvested at 24 hours after adding LPS and SnF2, and analyzed for proinflammatory cytokines in a kit following manufacturer's instruction (Meso Scale Diagnostics, Rockville, Md.).

[12] = system: IRF-luciferase reporter gene; test: THP1-Dual reporter cells, IRF-Lucia luciferase; assay type: cell-based, human
Description: as §4, §5

[13] = system: THP-1 cells; test: LPS stimulated cytokine production in THP-1 cells with citrulline; assay type: cell-based, human; settings: 0.3 mM to 9 mM; 300 ng/ml LPS; 24 hours
Description: Citrulline was purchased from Sigma-Aldrich (St. Louis, Mo.). THP1-Dual™ cells were purchased from Invivogen (San Diego, Calif.). Cells were cultured following the manufacturer's instruction, as described in EXAMPLE 11. For treatment, 0.3 mM to 9 mM of citrulline were first added to the culture medium. […] After 24 hours of treatment, media was collected and analyzed for cytokine production using 9-plex kit (Meso Scale Diagnostics Rockville, Md.).

Row | Molecule | LPS displacement % Mean [1] [%] | LPS displacement % Reading 1 [1] [%] | LPS displacement % Reading 2 [1] [%] | LPS displacement % Reading 3 [1] [%] | inhibition [2] | other results
1 | CCCCCCCCCCCC(=O)NCCCN(C)C [3-Dodecanamidopropyldimethylamine] | 79 | 87 | 62 | 87 | – | –
2 | 1,3-Diphenylacetone (1,3 diphenyl-2-propanone) | 11 | 16 | – | 5 | – | –
3 | CCCCCCCCCCCCCC(=O)NCC(=O)O [N-Myristoylglycine] | 76 | ~100 | 39 | 74 | 91.4% | –
4 | CCCCCC(C=O)=Cc1ccccc1 [alpha-Amylcinnamaldehyde] | 15 | 17 | – | 13 | – | –
5 | O.O.O=C([O-])CC(O)(CC(=O)[O-])C(=O)[O-].O=C([O-])CC(O)(CC(=O)[O-])C(=O)[O-].[Zn+2].[Zn+2].[Zn+2] [zinc citrate, dihydrate] | – | – | – | – | – | Inhibition of LAL activity % ([3]; citrate, dihydrate): 104% and 57%; Inhibition of LAL activity % ([4]; citrate, dihydrate): 104% and 82%
6 | CCCCCCCCCCCCCCCCCC(=O)NCCCN(C)C [Stearylamidopropyldimethylamine] | 77 | 85 | 71 | 74 | 83.8% | –
7 | CCCCCCCCCCCCN(C)C [N,N-Dimethyldodecylamine] | 22 | 36 | 18 | 13 | – | –
8 | CCCCCCCCCCCCCCCCCC(=O)OCCNC(=O)C[n+]1ccccc1.[Cl-] [Steapyrium chloride] | ~100 | ~100 | 100 | ~100 | 100% | –
9 | CCCCCCCC/C=C\CCCCCCCC(=O)O [cis-Oleic acid] | 31 | 54 | – | 9 | 61% | –
10 | C=CCCCCCCCCC=O [Undecylenic aldehyde] | 22 | 29 | – | 15 | – | –
11 | CC(O)C(=O)[O-].CC(O)C(=O)[O-].[Zn+2] (racemic) [dl-lactic acid hemizinc salt] | 19 | 15 | – | 24 | – | –
12 | iron(iii) chloride hexahydrate | ~100 | ~100 | 100 | ~100 | 58.1% | –
13 | [Cl][Sn][Cl] [stannous chloride] | – | – | – | – | – | Inhibition of LAL activity % [4]: 89% and 65%
14 | CC(C=O)Cc1ccc(C(C)C)cc1 (stereo not shown) [3-(4-Isopropylphenyl)-2-methylpropionaldehyde] | 39 | 21 | 29 | 65 | – | –
15 | CCCCCCCCCCCCCCCCCC(=O)NCCN(CC)CC [Diethylaminoethyl stearamide] | 66 | 77 | 62 | 58 | 97.4% | –
16 | O=C([O-])C(=O)[O-].[K+].[K+] [potassium oxalate] | – | – | – | – | – | Inhibition of LAL activity % [3]: 8% and 0%; Inhibition of LAL activity % [4]: 1% and 6%
17 | [F-].[Na+] [sodium fluoride] | – | – | – | – | – | Inhibition of LAL activity % [3]: 0%; Inhibition of LAL activity % [4]: 4% and 5%
18 | CC(C)CCOC(=O)c1ccccc1 [Isopentyl benzoate] | 18 | 22 | – | 13 | – | –
19 | Oc1cc(Cl)ccc1Oc1ccc(Cl)cc1Cl [Triclosan (irgasan)] | – | – | – | – | – | Inhibition of LAL activity % [3]: 0%; Average fluorescence intensity (FI) ([5]; 500 μM): 1021; remaining activity at 500 µM ([5]; HEK-Blue hTLR4, read-out: % of control): 99.4%; Inhibition of LAL activity % [4]: 10% and 0%
20 | Flagellin from B. subtilis: flagellin from B. subtilis | – | – | – | – | – | EC50 of flagellin on TLR5 ([6]; at 5 hours): 0.02 ng/mL; EC50 of flagellin on TLR5 ([6]; at 23 hours): 0.014 ng/mL

Row | Molecule | LPS displacement % Mean [1] [%] | LPS displacement % Reading 1 [1] [%] | LPS displacement % Reading 2 [1] [%] | LPS displacement % Reading 3 [1] [%] | inhibition [2] | other results
21 | CCCCCCCCCCCCCC[n+]1ccc(C)cc1.[Cl-] [Myristyl-γ-picolinium chloride] | ~100 | ~100 | ~100 | ~100 | 96.2% and 96% | –
22 | [F][Sn][F] [Tin (II) fluoride] | – | – | – | – | – | Inhibition of LAL activity % [3]: 60% and 49%; Displacement % of LPS from binding to BODIPY TR cadaverine ([1]; 0.63 mM): 12.69%; reduction of P. gingivalis LPS activation on the TLR4 reporter system ([7]; 3.2 mM): about 50%; reduction of P. gingivalis LPS activation on the TLR4 reporter system ([7]; […]): about 50%; level of E. coli induction of TLR-4 ([7]; stannous 500 uM or higher, 100 ng/ml E. coli LPS): decreased; level of P. gingivalis induction of TLR-2 [8]: decreased; expression of the NFKB-SEAP reporter gene by LPS and LTA in THP-1 dual cells [9]: inhibited; binding to E. coli LPS (MALDI-TOF) [10]: binds to E. coli LPS; cytokine production stimulated by LPS in human primary monocytes ([11]; 100 ng E. coli LPS or P. gingivalis LPS 1690, 24 hours): inhibited; suppression of LPS on IL-8 production in human primary monocytes ([11]; dose-dependent): reversed; luciferase production in THP-1 dual cells stimulated by E. coli LPS [12]: inhibited; fluorescence intensity of labeled LPS on HEK-Blue-hTLR4 cells [5]: reduced fluorescence intensity significantly; % of control ([5]; 500 μM): 64.5%; Average fluorescence intensity (FI) ([5]; 500 μM): 662; Inhibition of LAL activity % [4]: 92% and 87%
23 | C=CC[N+](C)(C)CC=C.[Cl-] [Diallyldimethylammonium chloride] | 35 | 40 | 38 | 28 | – | –
24 | [O-]n1ccccc1=S.[O-]n1ccccc1=S.[Zn+2] [1-Hydroxypyridine-2-thone zinc salt] | – | – | – | – | – | Inhibition of LAL activity % [3]: 0%; Inhibition of LAL activity % [4]: 2% and 6%
25 | CCCCC/C=C\C/C=C\C/C=C\C/C=C\CCCC(=O)OCC(O)CO (stereo not shown) [1-Arachidonoyl Glycerol] | – | – | – | – | 41.8% | –
26 | CCCCCCCCCCCCCCCC[N+](C)(C)C [Cetyltrimethylammonium bromide] | – | – | – | – | 99.5% | –
27 | Quaternium-17 | – | – | – | – | 100% | –
28 | O=C1O/C(=C/Br)CC[C@H]1c1cccc2ccccc12 [(S)-Bromoenol lactone] | – | – | – | – | 95.2% | –
29 | NC(=O)NCCC[C@H](N)C(=O)O [Citrulline] | – | – | – | – | – | effect on P. gingivalis LPS 1690 stimulated proinflammatory cytokine production (IL-6, TNF-α, IL-12p70, IL-10, IL-2, IFN-r, IL-1β) [13]: inhibited
30 | Laureth-6 | – | – | – | – | 100% | –
31 | [Cu+].[I-] [Copper(I) iodide] | 18 | 23 | 12 | 20 | – | –
32 | CCCCC/C=C\C/C=C\C/C=C\C/C=C\CCCC(=O)OCC [ethyl arachidonate] | – | – | – | – | 28.7% | –
33 | CCCCC/C=C\C/C=C\CCCCCCCC(=O)OC [Methyl linoleate] | 88 | ~100 | 53 | ~100 | 36.9% | –
34 | CCCCCCCCCCCCCCCC(=O)NCCO [Hexadecanamide MEA] | – | – | – | – | 32.5% | –
35 | CCCCCCCCCCCCCS(=O)(=O)O [TRIDECYL SULFONIC ACID SODIUM SALT] | – | – | – | – | 95.6% | –
36 | CCCCCCCCCCCCCCCCOCC(CO)OC (stereo not shown) [Hexadecyl Methyl Glycerol] | – | – | – | – | 40% | –
37 | CCCCCC/C=C\CCCCCCCC(=O)OCC [ethyl cis-9-hexadecenoate] | – | – | – | – | 31.8% | –
38 | CCCCCCCCCCCCCCCCCC[N+](C)(C)C [Steartrimonium chloride] | – | – | – | – | 71.3% | –
39 | CCCCCCCCCCCC[n+]1ccccc1.[Cl-] [N-Laurylpyridinium chloride] | 60 | 66 | 56 | 59 | 96.5% | –
